These results are taken from publication PMC6042085 (Proceedings of the National Academy of Sciences of the …, 2018).

The assay deals with T1, PriSLX (Saccharolobus solfataricus, UniProt Q97Z83+Q97ZS7).
T1 sequence (Q97Z83 1-330): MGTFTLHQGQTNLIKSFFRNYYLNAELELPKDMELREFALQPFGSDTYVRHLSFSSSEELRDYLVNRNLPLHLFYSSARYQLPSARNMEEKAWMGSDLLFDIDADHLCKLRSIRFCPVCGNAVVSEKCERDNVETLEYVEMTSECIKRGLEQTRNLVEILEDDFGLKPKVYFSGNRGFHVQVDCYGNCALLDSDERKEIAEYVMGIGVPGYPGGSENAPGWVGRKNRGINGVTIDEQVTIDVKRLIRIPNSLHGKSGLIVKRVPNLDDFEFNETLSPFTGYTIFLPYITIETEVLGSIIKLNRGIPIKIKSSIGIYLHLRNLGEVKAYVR
T1 sequence (Q97ZS7 1-154): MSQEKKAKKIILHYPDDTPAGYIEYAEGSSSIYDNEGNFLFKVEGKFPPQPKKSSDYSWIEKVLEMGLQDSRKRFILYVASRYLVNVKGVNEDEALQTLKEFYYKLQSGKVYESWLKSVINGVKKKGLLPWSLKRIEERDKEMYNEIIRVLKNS
T1 sequence (Q9UWW1 1-307 partner): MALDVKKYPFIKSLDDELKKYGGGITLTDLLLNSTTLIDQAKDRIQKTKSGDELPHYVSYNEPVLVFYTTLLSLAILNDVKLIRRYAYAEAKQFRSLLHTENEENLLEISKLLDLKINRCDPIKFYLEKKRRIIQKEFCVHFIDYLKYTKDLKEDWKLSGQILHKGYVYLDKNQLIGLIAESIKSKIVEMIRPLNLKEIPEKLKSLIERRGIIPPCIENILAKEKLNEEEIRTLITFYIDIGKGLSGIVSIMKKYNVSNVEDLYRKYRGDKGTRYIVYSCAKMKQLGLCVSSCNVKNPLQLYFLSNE
Kind of assay: primer synthesis, […]-labelled nucleotide, gel. It counts as biochemical. The settings on record: poly(dT) template; pH 6.0, 10 mM MnCl2, 10 µM ZnCl2, 75 °C.

As for `Nc1ncnc2c1ncn2[C@H]1C[C@H](O)[C@@H](COP(=O)(O)OP(=O)(O)OP(=O)(O)O)O1` [dATP], the “primer synthesis, 32P-labelled nucleotide, gel” value was “reactions with solely dATP as substrate primarily generate a lower yield”.
